Experimental findings from patent US20240294876A1, “METHODS FOR THE EXPANSION OF HUMAN GRANULOCYTE-MACROPHAGE PROGENITORS AND APPLICATIONS THEREOF” (University of Southern California, priority 2021, published 2024) are described below.

One assay deals with mouse GMPs. Description: Ex vivo expansion of mouse bone marrow-derived cells / mouse GMPs. The class given is cell-based. The text has this:
(A) Schematic of the experimental design to identify growth factors and small molecules that can promote expansion of mouse bone marrow-derived stem cells. (B) Representative phase-contrast images of mouse bone marrow cells cultured in N2B27 supplemented with the indicated small molecule inhibitors for 7 days. (C) Representative phase-contrast images of mouse bone marrow cells cultured in N2B27 supplemented with SCF plus GDC0879 or SB590885 for 3 passages. (D) Cell growth curves. Bone marrow cells isolated from C57BL/6J mice were plated into 24-well plates at a density of 2×10^5 cells/well and cultured in B7 medium supplemented with the indicated small molecules/growth factor. Cells were counted and passaged every 3 days. Data are represented as mean±SD from three independent experiments. (E) Bone marrow cells isolated from C57BL/6J mice were cultured in B7 medium supplemented with SCF/2i. Cells were passaged every 3 days. Representative phase-contrast pictures showing SCF/2i cells at different passages. (F) Cytogenetic analysis of SCF/2i cells using the GWT banding method. Bone marrow cells isolated from a female C57BL/6J mouse were expanded in SCF/2i for 8 passages before used for cytogenetic analysis. […] (G) Sequential images of individual bone marrow cells during expansion in B7 medium supplemented with SCF/2i. SCF/2i-expanded bone marrow cells were plated into 96-well plates at a density of 50 cells/well and cultured in SCF/2i. Sequential images were taken using the Keyence BZ-X710 microscopy every 24 hours. 15.7±4.0 colonies formed per well on day 4 (n=3×96). Data are represented as mean±SD from three independent experiments.
Mouse GMP derivation, expansion, and differentiation. Cells were cultured at 37° C. in a 5% CO2 water jacket incubator (Thermo Scientific). Bone marrow cells isolated from C57BL/6J, mTmG or CAG-Cas9-EGFP mice were plated into 6-well plates at a density of 2×10^6 cells/well and cultured in 2 mL B7 medium supplemented with 50 ng/mL SCF, 1 μM GDC-0879, and 10 μM SKL2001 (SCF/2i). After 3-4 days, cells were dissociated into single-cell suspension by pipetting up and down and replated into 6-well plates at a density of 2×10^6 cells/well and cultured in 2 mL B7 medium supplemented with SCF/2i. After 2 passages in SCF/2i, the majority of cells were GMPs. GMPs were routinely passaged every 3 days. To induce differentiation, GMPs were plated into 10 cm tissue culture dishes and cultured in RPMI-1640 medium containing 10% FBS and supplemented with either 20 ng/mL M-CSF (for macrophage differentiation) or 20 ng/mL G-CSF (for granulocyte differentiation). GMP-derived macrophages were harvested on day 7 (medium was changed once on day 4) and GMP-derived granulocytes were harvested on day 3 and used for the further experiments.
Development of defined conditions for the long-term ex vivo expansion of hematopoietic stem/progenitor cells. To develop conditions for the long-term expansion of stem or progenitor cells of the hematopoietic system, screening was conducted to identify small molecules and growth factors/cytokines that can promote their ex vivo expansion (see FIG. 3A). Specifically, bone marrow cells isolated from adult C57BL/6 mice were plated into 96-well plates in serum-free N2B27 medium. Then a first-round small molecule screening was performed. It was reasoned that if a small molecule can block differentiation or promote expansion of stem cells, these stem cells should form colonies with a uniform cell morphology. […] Upon passaging, however, no new colonies were formed in culture with any of the 5 small molecule inhibitors. A second-round screening was conducted to identify growth factors/cytokines that could further improve the expansion of the colonies.
More importantly, these cells could be expanded robustly at clonal density (see FIG. 3G).
SCF/2i-expanded cells are GMPs. […]

The subject of a further assay is human GMPs. The assay is described as follows: Ex vivo expansion of human GMPs sorted from cord blood. To be noted: added to SCF/GDC-0879. Type of assay: cell-based. The text has this:
(A) Growth curves of human GMPs. Human GMPs were FACS sorted from cord blood and cultured in the designated conditions. Cells were passaged every 3 days and replated into 12-well plates at a density of 1×10^5 cells/well. Data are represented as mean±SD from three independent experiments. (B) Structure of TN-2-30. (C) Representative phase-contrast images of human GMPs cultured in modified SCF/2i. P, passage number. (D) Sorted human GMPs were expanded in modified SCF/2i and induced to differentiate towards granulocytes by treatment with 30 ng/ml human G-CSF for 10 days. Differentiated cells were analyzed by Giemsa staining (upper panel) and flow cytometry (lower panel). Flow cytometry data are represented as mean±SD from three independent experiments. (E) Relative MPO activities of human GMPs and human GMP-derived granulocytes stimulated with or without PMA for 2 hours. Differentiated cells generated in (D) were plated into 96-well plates at a density of 2×10^4 cells/well and stimulated with or without PMA for 2 hours, after which MPO activities in the supernatants were measured. Data are represented as mean±SD from three independent experiments. […] (H) Differentiated cells generated in (D) and (F) were plated into 96-well plates at a density of 2×10^4 cells/well and stimulated with or without 500 ng/ml LPS for 6 hours, after which cytokine secretion in the supernatants was measured by ELISA. […]

SMILES strings stand for the structures.

In the case of `O=C(NCCCn1ccnc1)c1cc(-c2ccco2)on1` [SKL2001], in the assay on mouse GMPs (combined with SCF and GDC-0879), the “long-term expansion of a uniform cell population” value was “allowed for the long-term expansion”. Moreover, in the assay on mouse GMPs (second screening, with GDC-0879), the “interaction with GDC-0879 in promoting expansion of the uniform round-shaped cells” value is given as “acted synergistically”. Besides, the “requirement for expansion of β-catenin knockout mouse GMPs” value with mouse GMPs (β-catenin knockout mouse GMPs) is “still required the addition of SKL2001”. The “effect of addition on expansion of human GMPs” value with human GMPs is listed as “only marginally improved”.
